# What was measured:
# Format in all cases: in vivo, human
# [1] = system: individuals with essential tremor; experiment: Phase 2 study, Compound 1 60 mg once daily for 28 days: TETRAS performance subscale total score; settings: Full Analysis Set
# Experimental: As used herein, “The Essential Tremor Rating Assessment Scale (TETRAS) performance subscale total score” refers to an assessment scale for essential tremor developed by The Tremor Research Group (Elble, R. J., J. Neurol. Neuromedicine 1(4):34-38 (2016); Elble, R. J. et. al., Mov. Disord. 27(12); 1567-1569 (2012)). The TETRAS […] performance subscale includes 9 metrics or characteristics, wherein each metric or characteristic is scored 0 to 4. Some metrics or characteristics are performed on both right and left limbs and/or include multiple subitems. Scores for each of the 9 characteristics are then added to give a total score of no greater than 64. The 9 metrics or characteristics include:
# (§1) Participants were 18 to 80 years of age, inclusive, diagnosed of ET of at least 3 years duration with scores of at least 1.5 for each of the six items that comprised the combined total upper limb TETRAS (total performance subscale part 4) with the total score for the dominant upper limb (the sum of the 3 items for either the right or left upper limb, whichever is dominant) being at least 5.5, at both Screening and predose on Day 1.
# (§2) Participants were randomized to receive Compound 1 60 mg or placebo once daily in the morning on a 1:1 basis. If participants reported a TEAE considered by investigator to be related to Compound 1 and not tolerable, investigator might reduce the dose of Compound 1 from 60 mg in 15 mg decrements (i.e., 60 mg, to 45 mg, to 30 mg), as medically appropriate. If intolerable TEAEs persist at the 30 mg dose, Compound 1 was permanently stopped.
# (§3) This study included a Screening Period of up to 28 days, a 29-day treatment period consisting of 28 days of dosing with the end of treatment visit intended to be on Day 29 at trough, and a 14-day follow-up period relative to final dose. Study patients were not taking other medications for essential tremor during the 28-day treatment period.
# [2] = system: individuals with essential tremor; experiment: Phase 2 study, Compound 1 60 mg once daily for 28 days: TETRAS ADL total score
# From the text: As used herein, “The Essential Tremor Rating Assessment Scale (TETRAS) activities of daily living (ADL) subscale total score” refers to an assessment scale for essential tremor developed by The Tremor Research Group (Elble, R. J., J. Neurol. Neuromedicine 1(4):34-38 (2016); Elble, R. J. et. al., Mov. Disord. 27(12); 1567-1569 (2012)). The TETRAS ADL subscale includes 12 metrics or characteristics, wherein each metric or characteristic is scored 0, 1, 2, 3, or 4 based on the severity of the characteristic present in the subject. Scores for each of the 12 characteristics are then added to give a total score of no greater than 48. The 12 characteristics scored in the TETRAS ADL subscale total score include:
# as §1, §2, §3
# Similarly, an MMRM was be used for the analysis of the following variables: changes from baseline in TETRAS performance subscale part 4, 6, 7, and 8 combined score, and TETRAS ADL score. For each model, the comparison of interest was between Compound 1 tablets and matching placebo at the 15-day time point. Model-based point estimates (i.e., LS means), 95% confidence intervals, and p-values were reported.
# [3] = system: individuals with essential tremor; experiment: as above; remark: listed apart in the source
# [4] = Baseline TETRAS ADL < 28, Day 29
# [5] = Baseline TETRAS ADL ≥ 28, Day 29
structure (smiles),measurement,setting,value
COC[C@@]1(O)CC[C@H]2[C@@H](CC[C@@H]3[C@@H]2CC[C@]2(C)[C@@H](C(=O)Cn4nnc(C)n4)CC[C@@H]32)C1 [Compound 1],LSMean difference vs placebo in change from baseline in TETRAS performance subscale total score,[1]; Day 8,−1.26
same,Model-based LSMean (SE) change from baseline in TETRAS performance subscale total score,[1]; Day 8,−3.55 (0.780)
same,LSMean difference vs placebo in change from baseline in TETRAS performance subscale total score,"[1]; Day 15, 5 hr postdose",−1.52
same,Model-based LSMean (SE) change from baseline in TETRAS performance subscale total score,"[1]; Day 15, 5 hr postdose",−5.90 (1.015)
same,LSMean difference vs placebo in change from baseline in TETRAS performance subscale total score,"[1]; Day 15, 8 hr postdose",0.01
same,Model-based LSMean (SE) change from baseline in TETRAS performance subscale total score,"[1]; Day 15, 8 hr postdose",−4.61 (0.954)
same,LSMean difference vs placebo in change from baseline in TETRAS performance subscale total score,"[1]; Day 15, predose",−0.91
same,Model-based LSMean (SE) change from baseline in TETRAS performance subscale total score,"[1]; Day 15, predose",−3.46 (0.878)
same,LSMean difference vs placebo in change from baseline in TETRAS performance subscale total score,[1]; Day 22,−0.24
same,Model-based LSMean (SE) change from baseline in TETRAS performance subscale total score,[1]; Day 22,−3.16 (0.914)
same,LSMean difference vs placebo in change from baseline in TETRAS performance subscale total score,[1]; Day 29,"−0.32 (−2.78, 2.14)"
same,Model-based LSMean (SE) change from baseline in TETRAS performance subscale total score,[1]; Day 29,−3.22 (0.922)
same,LSMean difference vs placebo in change from baseline in TETRAS performance subscale total score,"[1]; Day 29, listed as Cmpd 1",−0.32
same,LSMean difference vs placebo in change from baseline in TETRAS performance subscale total score,[1]; Day 42,2.28
same,Model-based LSMean (SE) change from baseline in TETRAS performance subscale total score,[1]; Day 42,−1.59 (0.820)
same,LSMean (SE) CFB in TETRAS ADL total score,[2]; [4],−2.84
same,LSMean Difference (CI) vs placebo in CFB in TETRAS ADL total score,[2]; [4],−1.17
same,Mean (SD) % CFB in TETRAS ADL total score,[2]; [4],−16.52%
same,LSMean (SE) CFB in TETRAS ADL total score,[2]; [5],−5.67
same,Mean (SD) % CFB in TETRAS ADL total score,[2]; [5],−18.10%
same,Model-based LSMean (SE) change from baseline in TETRAS ADL total score,"[2]; Full Analysis Set, Day 8",−5.34 (0.845)
same,LSMean difference vs placebo in change from baseline in TETRAS ADL total score,"[2]; Full Analysis Set, Day 15",−2.95
same,Model-based LSMean (SE) change from baseline in TETRAS ADL total score,"[2]; Full Analysis Set, Day 15",−5.43 (0.945)
same,LSMean difference vs placebo in change from baseline in TETRAS ADL total score,"[2]; Full Analysis Set, Day 22",−2.56
same,Model-based LSMean (SE) change from baseline in TETRAS ADL total score,"[2]; Full Analysis Set, Day 22",−5.24 (0.904)
same,Mean (SD) % CFB in TETRAS ADL total score,"[2]; Full Analysis Set, Day 29",−17.4%
same,Model-based LSMean (SE) change from baseline in TETRAS ADL total score,"[2]; Full Analysis Set, Day 29",−4.24 (0.940)
same,LSMean difference vs placebo in change from baseline in TETRAS ADL total score,"[2]; Full Analysis Set, Day 29, listed as Cmpd 1",−1.37
same,LSMean difference vs placebo in change from baseline in TETRAS ADL total score,"[2]; Full Analysis Set, Day 42",1.13
same,Model-based LSMean (SE) change from baseline in TETRAS ADL total score,"[2]; Full Analysis Set, Day 42",−2.14 (0.905)
same,LSMean Difference (CI) vs placebo in CFB in TETRAS ADL total score,[3]; [5],−1.47
same,LSMean difference vs placebo in change from baseline in TETRAS ADL total score,"[3]; Full Analysis Set, Day 8",−2.80
same,"Change from baseline in TETRAS ADL subscale total score compared with placebo, in words","[3]; Full Analysis Set, Day 29",numerically superior to placebo but failed to reach statistical significance
same,LSMean difference vs placebo in change from baseline in TETRAS ADL total score,"[3]; Full Analysis Set, Day 29","−1.37 (−3.81, 1.08)"
